{
  "source": "paper PMC4667193",
  "about": "(Scientific Reports, 2015)",
  "key": {"[1]": {"target": "T1, Rat M5 mAChR (Rattus norvegicus, UniProt P08911)", "T1 construct": "host or cells: CHO (CHO-K1) cells", "T1 sequence (P08911 1-531)": "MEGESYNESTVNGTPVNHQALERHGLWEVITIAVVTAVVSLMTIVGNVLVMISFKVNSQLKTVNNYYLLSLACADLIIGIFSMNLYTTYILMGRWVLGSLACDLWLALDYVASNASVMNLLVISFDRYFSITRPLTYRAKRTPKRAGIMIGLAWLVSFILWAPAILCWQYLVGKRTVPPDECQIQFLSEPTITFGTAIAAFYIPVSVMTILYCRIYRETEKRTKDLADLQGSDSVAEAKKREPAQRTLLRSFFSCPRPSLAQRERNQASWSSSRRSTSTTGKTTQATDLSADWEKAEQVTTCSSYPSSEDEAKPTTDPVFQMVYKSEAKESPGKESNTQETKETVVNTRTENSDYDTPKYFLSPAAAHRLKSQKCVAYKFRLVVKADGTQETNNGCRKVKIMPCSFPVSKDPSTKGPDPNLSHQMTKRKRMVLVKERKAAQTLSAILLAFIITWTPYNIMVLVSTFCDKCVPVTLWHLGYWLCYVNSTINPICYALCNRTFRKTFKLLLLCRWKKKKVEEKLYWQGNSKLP", "assay": "[^3H]NMS radioligand competition binding, CHO cell membranes", "details": "rat M5, 0.1 nM [^3H]NMS", "protocol": "(§1) Membranes were prepared from CHO cells stably expressing individual rat mAChRs (rM1 to rM5). Briefly, media was removed, cells were washed with PBS and harvested with PBS into a centrifuge bottle. Cells were spun at 2,000 g for 5 minutes at 4 °C. After harvesting, the supernatant was gently discarded and cold membrane preparation buffer [Hanks’ balanced salt solution (HBSS; Invitrogen), 4.17 mM sodium bicarbonate, 20 mM HEPES and 0.5 mM EDTA] was added (10 mL/dish). Cells were then homogenized for 5–10 seconds with a rotary homogenizer (Polytron®) and centrifuged at 20,000g for 20 minutes at 4 °C. The homogenization/centrifugation cycle was repeated twice. After the last centrifugation, the supernatant was gently discarded and the pellet was resuspended in cold membrane preparation buffer (up to 2 mL). All binding reactions were performed in a total volume of 1 mL containing 25 μg of membrane protein. […] The equilibrium binding was terminated by rapid filtration using a 96-well harvester (Brandel®). Filters were washed three times with ice-cold harvesting buffer and were dried overnight. Radioactivity was counted using a TopCount NXT (PerkinElmer®) and counts were normalized to the maximal specific binding in the presence of vehicle. Saturation and competition binding data were analyzed using a weighted nonlinear least-squares interactive curve-fitting program GraphPad Prism (GraphPad Prism Software version 5.0). A mathematical model for one or two binding sites was applied. The equilibrium dissociation constant (KD) and the binding capacity (Bmax) were determined. The inhibition constant (Ki) was determined from competition curves using the Cheng and Prusoff equation[52]."}, "[2]": {"target": "T2, Rat M3 mAChR (Rattus norvegicus, UniProt P08483)", "T2 construct": "host or cells: CHO (CHO-K1) cells", "T2 sequence (P08483 whole entry)": "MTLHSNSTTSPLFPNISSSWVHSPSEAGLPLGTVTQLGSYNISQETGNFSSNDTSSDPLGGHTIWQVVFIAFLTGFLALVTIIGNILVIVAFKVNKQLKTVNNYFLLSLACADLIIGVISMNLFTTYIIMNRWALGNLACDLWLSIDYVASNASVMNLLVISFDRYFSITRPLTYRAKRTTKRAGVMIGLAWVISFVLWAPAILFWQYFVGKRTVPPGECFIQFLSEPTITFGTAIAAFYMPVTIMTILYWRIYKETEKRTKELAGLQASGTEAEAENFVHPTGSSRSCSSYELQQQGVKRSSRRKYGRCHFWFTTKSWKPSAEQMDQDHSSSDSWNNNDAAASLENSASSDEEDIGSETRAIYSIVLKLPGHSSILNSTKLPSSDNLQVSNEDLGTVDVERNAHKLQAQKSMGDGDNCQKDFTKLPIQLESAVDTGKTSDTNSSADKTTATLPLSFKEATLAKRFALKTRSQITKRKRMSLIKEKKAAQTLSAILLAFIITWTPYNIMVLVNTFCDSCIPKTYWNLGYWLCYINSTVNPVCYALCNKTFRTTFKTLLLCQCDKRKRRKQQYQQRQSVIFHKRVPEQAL", "assay": "[^3H]NMS radioligand competition binding, CHO cell membranes", "details": "rat M3, 0.1 nM [^3H]NMS", "protocol": "as §1"}, "[3]": {"target": "T3, Rat M2 mAChR (Rattus norvegicus, UniProt P10980)", "T3 construct": "host or cells: CHO (CHO-K1) cells", "T3 sequence (P10980 1-466)": "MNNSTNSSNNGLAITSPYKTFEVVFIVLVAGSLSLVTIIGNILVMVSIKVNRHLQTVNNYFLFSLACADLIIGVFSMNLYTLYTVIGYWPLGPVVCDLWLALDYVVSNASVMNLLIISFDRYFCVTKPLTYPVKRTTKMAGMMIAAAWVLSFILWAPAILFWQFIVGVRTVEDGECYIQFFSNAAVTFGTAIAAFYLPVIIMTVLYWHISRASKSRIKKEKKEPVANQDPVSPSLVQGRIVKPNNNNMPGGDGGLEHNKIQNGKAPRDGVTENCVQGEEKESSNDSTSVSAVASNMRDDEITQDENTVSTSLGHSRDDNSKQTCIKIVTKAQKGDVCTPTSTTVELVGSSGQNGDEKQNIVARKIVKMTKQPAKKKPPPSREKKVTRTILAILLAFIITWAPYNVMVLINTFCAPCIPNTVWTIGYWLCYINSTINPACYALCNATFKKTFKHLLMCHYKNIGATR", "assay": "[^3H]NMS radioligand competition binding, CHO cell membranes", "details": "rat M2, 0.1 nM [^3H]NMS", "protocol": "as §1"}, "[4]": {"target": "T2, Rat M3 mAChR", "assay": "calcium mobilization assay in CHO cells", "format": "cell-based", "protocol": "(§2) CHO cells expressing rM1, rM3 and rM5 were plated at 4 × 10^4 cells per well, whereas rM2 and rM4 were plated at 6 × 10^4 cells per well, in standard growth media (as described previously under “cell culture”) in 96-well plates 24 hours before assay and were incubated overnight at 37 °C in 5% CO2. […] Cells were incubated for 45 minutes (37 °C, 5% CO2) for dye loading. Fluo4-AM dye was removed, cells were washed and replaced with 40 μL of calcium assay buffer. AEME concentration-response curves were determined in single-add experiments. […] All compounds were dissolved in dimethyl sulfoxide (DMSO) and then in calcium assay buffer to obtain a final DMSO concentration of 0.3%. […] These values were fit using GraphPad Prism version 5.0 to determine EC50 values and Schild slope and pA2 in the Schild analyses."}, "[5]": {"target": "T4, Rat M1 mAChR (Rattus norvegicus, UniProt P08482)", "T4 construct": "host or cells: CHO (CHO-K1) cells", "T4 sequence (P08482 1-460)": "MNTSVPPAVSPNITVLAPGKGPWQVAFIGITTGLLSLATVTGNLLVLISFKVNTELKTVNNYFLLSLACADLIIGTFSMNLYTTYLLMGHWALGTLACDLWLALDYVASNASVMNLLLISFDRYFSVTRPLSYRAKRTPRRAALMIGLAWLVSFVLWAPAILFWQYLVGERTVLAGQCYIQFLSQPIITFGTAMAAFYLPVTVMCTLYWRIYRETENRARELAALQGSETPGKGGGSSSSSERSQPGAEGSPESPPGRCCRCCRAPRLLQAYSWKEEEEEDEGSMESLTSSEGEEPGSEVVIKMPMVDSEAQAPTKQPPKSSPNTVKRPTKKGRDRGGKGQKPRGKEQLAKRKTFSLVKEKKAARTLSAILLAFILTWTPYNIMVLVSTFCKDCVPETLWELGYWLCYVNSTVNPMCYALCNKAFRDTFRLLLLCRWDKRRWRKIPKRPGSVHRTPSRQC", "assay": "calcium mobilization assay in CHO cells", "format": "cell-based", "protocol": "as §2"}},
  "data": [
    {"smiles": "COC(=O)C1=CC[C@@H]2CC[C@H]1N2C", "note": "[AEME, anhydroecgonine methyl ester]", "values": [
      {"measurement": "Ki", "setting": "[1]", "result": 29.5, "unit": "µM"},
      {"measurement": "Ki", "setting": "[2]", "result": 33.9, "unit": "µM"},
      {"measurement": "Ki", "setting": "[3]", "result": 19.5, "unit": "µM"},
      {"measurement": "mechanism of action", "setting": "[4]; rat M3", "result": "partial agonist-activity"},
      {"measurement": "% of the maximum acetylcholine response", "setting": "[4]; rat M3, agonist mode", "result": 27.2, "unit": "%"},
      {"measurement": "EC50", "setting": "[4]; rat M3, agonist mode (single-add)", "result": "> 100", "unit": "µM"},
      {"measurement": "mechanism of action", "setting": "[5]; rat M1", "result": "partial agonist-activity"},
      {"measurement": "% of the maximum acetylcholine response", "setting": "[5]; rat M1, agonist mode", "result": 38.3, "unit": "%"},
      {"measurement": "EC50", "setting": "[5]; rat M1, agonist mode (single-add)", "result": "> 100", "unit": "µM"}
    ]}
  ]
}
